Experimental data taken from ChEMBL document CHEMBL1208764, “Morroniside cinnamic acid conjugate as an anti-inflammatory agent” (Bioorg Med Chem Lett, 2010).
The source made the active and inactive calls. No cut-off for these calls is given here.

Assays:
[1] = test system: HUVEC; assay: Cytotoxicity against HUVEC assessed as LDH release at 10-1000 ug/ml after 2 hrs; type: cell-based; details: human
[2] = test system: HUVEC; assay: Antiinflammatory activity in HUVEC assessed as inhibition of TNF-alpha-induced E-selection expression at 10-1000 ug/ml after 2 hrs by ELISA; type: functional, cell-based; details: Homo sapiens
[3] = test system: HUVEC; assay: Antiinflammatory activity in HUVEC assessed as inhibition of TNF-alpha-induced E-selection expression after 2 hrs by ELISA; type: functional, cell-based; details: Homo sapiens

SMILES	Activity [1]	inhibition [2]	IC50 [3]
COC(=O)C1=CO[C@@H](O[C@@H]2O[C@H](CO)[C@@H](O)[C@H](O)[C@H]2O)[C@@H]2[C@H](C)O[C@@H](OC)C[C@H]12	Non-toxic	inactive	
C[C@]1(OC(=O)/C=C/c2ccccc2)C[C@@H](O)[C@]2(O)C=CO[C@@H](O[C@@H]3O[C@H](CO)[C@@H](O)[C@H](O)[C@H]3O)[C@@H]21 [HARPAGOSIDE]			88.2 µM
COC(=O)C1=CO[C@@H](O[C@@H]2O[C@H](CO)[C@@H](O)[C@H](O)[C@H]2O)[C@@H]2[C@H](C)O[C@@H](O)C[C@H]12 [MORRONISIDE]	Non-toxic	inactive	
